Assay: Solubility of the API
Type: physicochemical
Settings: water and a buffer salt solution with pH 1.0-pH 6.8

Solubility: insoluble
Structure (SMILES): Cn1c(C(=O)N2CC(F)(F)C2)cc2ccc(-c3nccc(Nc4ccc(-c5cn[nH]c5)cc4)n3)cc21 [compound of formula (IV), [6-[4-[[4-(1H-pyrazol-4-yl)phenyl]amino]pyrimidin-2-yl]-1-methyl-1H-indole-2-yl](3,3-difluoroazetidin-1-yl)methanone]
